Where “and” joins values, the source holds several entries; their conditions need not be identical. Identical values can stand only once.

The target in the first assay is MAPK14 (human) (UniProt Q16539). In words: Cell-Based Assay. As to conditions: thp1.
Chain of MAPK14 (human) (Q16539 whole entry, looked up): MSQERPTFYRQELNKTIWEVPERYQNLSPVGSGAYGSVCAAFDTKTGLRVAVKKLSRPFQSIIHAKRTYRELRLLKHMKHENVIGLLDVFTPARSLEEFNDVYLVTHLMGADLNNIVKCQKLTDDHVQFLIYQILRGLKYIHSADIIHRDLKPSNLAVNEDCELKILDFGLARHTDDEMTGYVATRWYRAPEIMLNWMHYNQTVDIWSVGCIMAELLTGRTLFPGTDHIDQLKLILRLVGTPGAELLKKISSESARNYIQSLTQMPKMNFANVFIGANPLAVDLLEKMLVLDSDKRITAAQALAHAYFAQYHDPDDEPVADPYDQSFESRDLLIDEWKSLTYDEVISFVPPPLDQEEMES
As usually defined, the EC50 is the concentration that produces a half-maximal response. High values mean lower potency in that assay, low ones higher potency in that assay. In general, Kd refers to the free concentration of one partner at which half of the binding sites on the other are occupied at equilibrium, for simple one-to-one binding. A low value points to higher affinity. `Cc1ccc(-n2nc(C(C)(C)C)cc2NC(=O)Nc2ccccc2)cc1`: the Cp is 11 µg/mL; the EC50 was 0.18 µM; the dissociation constant Kd was 0.003 µM and 0.021 µM.
Turning to `Cc1ccc(-n2nc(C(C)(C)C)cc2NC(=O)Nc2cccc3ccccc23)cc1`, the EC50 came out at 0.37 µM.
`CC(C)c1cc(NC(=O)Nc2ccccc2)n(-c2ccccc2)n1` showed a Kd of 0.33 µM. This counts as sub-micromolar.
On the same count and under the same terms, for `Cc1cc(NC(=O)Nc2ccccc2)n(-c2ccccc2)n1` the value was over 7 µM; for `CC1(c2cc(NC(=O)Nc3ccccc3)n(-c3ccccc3)n2)CCCCC1`, 0.022 µM.
`Cc1cccc(-n2nc(C(C)(C)C)cc2NC(=O)Nc2ccccc2)c1` registered a half-maximal effective concentration (EC50) of 0.38 µM and a Kd of 0.002 µM.
The like results for `CC(C)(C)c1cc(NC(=O)Nc2ccccc2)n(-c2ccc3ccccc3c2)n1` were, in that order, 1.9 µM and 0.008 µM.
`CC(C)(C)c1cc(NC(=O)Nc2ccccc2)n(-c2ccccc2)n1`: the Cp was 0.1 µg/mL, the concentration giving a half-maximal response (EC50) was found to be 0.73 µM and the dissociation constant (Kd) was 0.013 µM.
`COc1ccc(-n2nc(C(C)(C)C)cc2NC(=O)Nc2ccccc2)cc1` had a 50% effective concentration (EC50) of 1.6 µM and a Kd of 0.031 µM.
Turning to `CC(C)(C)c1cc(NC(=O)Nc2ccccn2)n(-c2ccccc2)n1`, the Kd amounted to 0.4 µM. In other words, the sub-micromolar range.
For the molecule `CCC(C)(C)c1cc(NC(=O)Nc2ccccc2)n(-c2ccccc2)n1`, the Kd turned out to be 0.012 µM.
For the molecule `CC(C)(C)c1cc(NC(=O)Nc2ccccc2)n(-c2ccc(N)cc2)n1`, the EC50 came out at 0.63 µM and the Kd stood at 0.007 µM.
As to `CC(C)(c1ccccc1)c1cc(NC(=O)Nc2ccccc2)n(-c2ccccc2)n1`, the Kd was found to be 0.76 µM.
As for `CC(C)(C)c1cc(NC(=O)Nc2cccnc2)n(-c2ccccc2)n1`, the Kd was determined as 0.42 µM. This Kd is about 1.8-fold lower than that of the molecule before.
As to `CC(C)(C)c1cc(NC(=O)Nc2cccc(N)c2)n(-c2ccccc2)n1`, the EC50 came to 1 µM and the dissociation constant (Kd) is 0.1 µM.
With `Cc1ccccc1-n1nc(C(C)(C)C)cc1NC(=O)Nc1ccccc1`, the concentration giving a half-maximal response (EC50) stood at 2.3 µM and the Kd worked out at 0.2 µM.
Consider `Cc1ccc(-n2nc(C(C)(C)C)cc2NC(=O)Nc2ccccc2)cc1C`, for which the EC50 stood at 0.12 µM and the Kd was determined as 0.004 µM.
For `CC(C)(C)c1cc(CC(=O)Nc2ccc(Cl)cc2)n(-c2ccccc2)n1`, the Kd turned out to be 1.5 µM.
The same measure, in the same setting: for `CC1(c2cc(NC(=O)Nc3ccccc3)n(-c3ccccc3)n2)CCOCC1` the value was 0.28 µM.
`CC(C)(C)c1cc(NC(=O)NC2CCCCC2)n(-c2ccccc2)n1` had an EC50 of 3.3 µM and a dissociation constant Kd of 0.13 µM.
`CN(C(=O)Nc1cc(C(C)(C)C)nn1-c1ccccc1)c1ccc(Cl)cc1` yielded a dissociation constant (Kd) of 7.5 µM.
Still for that read-out and setting: for `CC(C)(C)c1cc(NC(=O)Cc2ccc(Cl)cc2)n(-c2ccccc2)n1` the value was over 0.9 µM.
In turn, `CC(C)(C)c1cc(NC(=O)NCCc2ccccc2)n(-c2ccccc2)n1` registered a 50% effective concentration (EC50) of 11 µM and a dissociation constant Kd of 0.26 µM.
In turn, `CC(C)(C)c1cc(NC(=O)Nc2ccc(Cl)cc2)n(-c2ccccc2)n1` returned a 50% effective concentration (EC50) of 1 µM and an equilibrium dissociation constant (Kd) of 0.008 µM.
Consider `Cc1ccc(-n2nc(C(C)(C)C)cc2NC(=O)Nc2ccccc2F)cc1`, for which the Cp was 51 µg/mL, the EC50 was determined as 0.13 µM and the dissociation constant Kd was 0.014 µM.
With `CC(C)(C)c1cc(NC(=O)Nc2ccncc2)n(-c2ccccc2)n1`, the Kd came out at 1.2 µM.
Consider `CN(C(=O)Nc1ccc(Cl)cc1)c1cc(C(C)(C)C)nn1-c1ccccc1`, for which the Kd was over 1 µM.
The molecule `CC(C)(C)c1cc(NC(=O)Nc2ccccc2)n(C2CCCCC2)n1` registered a Kd of 0.5 µM.
Molecule `CC(C)(C)c1cc(NC(N)=O)n(-c2ccccc2)n1` displayed an equilibrium dissociation constant (Kd) of over 7 µM.
Molecule `CC(C)(C)c1cc(NC(=O)NCc2ccccc2)n(-c2ccccc2)n1` displayed an EC50 of 1.2 µM and a Kd of 0.047 µM.
For `COc1cccc(-n2nc(C(C)(C)C)cc2NC(=O)Nc2ccccc2)c1` the same measures were 0.96 µM and 0.019 µM.
For `CC(C)(C)c1cc(NC(=O)NC2CCc3ccccc32)n(-c2ccccc2)n1` (stereo not given) the same measures were 0.33 µM and 0.003 µM.
The like results for `Cc1cccc(NC(=O)Nc2cc(C(C)(C)C)nn2-c2ccccc2)c1C` were, in that order, 0.41 µM and 0.003 µM.
Take `O=C(Nc1ccccc1)Nc1cc(C2CCCCC2)nn1-c1ccccc1`: the Kd was over 0.4 µM.
`COCC(C)(C)c1cc(NC(=O)Nc2ccccc2)n(-c2ccccc2)n1` yielded a dissociation constant Kd of 1.4 µM.
Same read-out and setting: as for `CC(C)(C)c1cc(NC(=O)Nc2ccc(N)cc2)n(-c2ccccc2)n1`, the figure is 0.318 µM.
The molecule `CC(C)(C)c1cc(NC(=O)Nc2cccc3ccccc23)n(-c2ccccc2)n1` displayed a concentration for a half-maximal effect (EC50) of 0.25 µM and a Kd of 0.005 µM.
The like results for `CC(C)(C)c1cc(NC(=O)NC2Cc3ccccc3C2)n(-c2ccccc2)n1` were, in that order, 0.77 µM and 0.014 µM.
Consider `CC(C)(C)c1cc(NC(=S)Nc2ccc(Cl)cc2)n(-c2ccccc2)n1`, for which the Kd stood at 0.53 µM. This counts as sub-micromolar.
`CC(C)(C)c1cc(NC(=O)Nc2ccc3ccccc3c2)n(-c2ccccc2)n1` gave an EC50 of 0.7 µM.
As for `CC(C)(C)c1cc(NC(=O)Nc2ccccc2)n(-c2ccncc2)n1`, the EC50 was 0.82 µM and the Kd is 0.021 µM.

The assay is the same for the next values; noted with them: thp1, concentration not given here.
One may read the inhibition as the share of the control response that was lost under treatment. For the molecule `Cc1ccc(-n2nc(C(C)(C)C)cc2NC(=O)Nc2ccccc2F)cc1`, the inhibition was 53%.

The record behind these values is the Kinase Knowledgebase extract (Sharma et al. 2016).
